In one data set the test system is Bacillus cereus. Kind of data set: Antimicrobial activity, paper disc method. It counts as cell-based. As to conditions: 0.02 ml of 300 μg/ml solution, trypticase-soy agar. On the procedure: (§1) With trypticase-soy agar (BBL) as an assay medium, the inhibitory concentrations against the microorganisms named below were investigated by the paper disc method. Thus, filter-paper discs (Toyo Seisakusho, thin-type, 8 mm dia.) each impregnated with 0.02 ml of a 300 μg/ml solution of C-15003 P-3, P-3' or P-4 were placed on plates respectively inoculated with the microorganisms named below to investigate the minimal inhibitory concentrations.

The test system of another data set is Bacillus subtilis. Nature of the data set: Antimicrobial activity, paper disc method. Type of data set: cell-based. As to conditions: 0.02 ml of 300 μg/ml solution, trypticase-soy agar. On the procedure:
as §1

A further data set relates to Escherichia coli. Kind of data set: Antimicrobial activity, paper disc method. Type of data set: cell-based. To be noted: 0.02 ml of 300 μg/ml solution, trypticase-soy agar. The procedure: as §1
The test system of another data set is Klebsiella pneumoniae. Nature of the data set: Antimicrobial activity, paper disc method. Type of data set: cell-based. To be noted: 0.02 ml of 300 μg/ml solution, trypticase-soy agar. On the procedure: as §1
Another data set relates to Mycobacterium avium. Nature of the data set: Antimicrobial activity, paper disc method. It counts as cell-based. As to conditions: 0.02 ml of 300 μg/ml solution, trypticase-soy agar. The procedure: as §1
The subject of another data set is Proteus mirabilis. Kind of data set: Antimicrobial activity, paper disc method. It counts as cell-based. As to conditions: 0.02 ml of 300 μg/ml solution, trypticase-soy agar. On the procedure: as §1
The test system of another data set is Proteus vulgaris. Nature of the data set: Antimicrobial activity, paper disc method. As to conditions: 0.02 ml of 300 μg/ml solution, trypticase-soy agar. Type of data set: cell-based. The procedure: as §1
Another data set relates to Pseudomonas aeruginosa. Nature of the data set: Antimicrobial activity, paper disc method. Type of data set: cell-based. To be noted: 0.02 ml of 300 μg/ml solution, trypticase-soy agar. On the procedure:
as §1

For another data set, the system named is Serratia marcescens. Kind of data set: Antimicrobial activity, paper disc method. Type of data set: cell-based. To be noted: 0.02 ml of 300 μg/ml solution, trypticase-soy agar. The procedure: as §1
The test system of a further data set is Staphylococcus aureus. Kind of data set: Antimicrobial activity, paper disc method. It counts as cell-based. As to conditions: 0.02 ml of 300 μg/ml solution, trypticase-soy agar. On the procedure: as §1
Another data set concerns Talaromyces avellaneus. Kind of data set: Growth inhibition on agar plates. It counts as cell-based. To be noted: Hamigera avellanea, pH 7.0, read-out: minimal inhibitory concentration. On the procedure:
(§2) On the other hand, with agar plates containing the assay medium [3.5 g disodium hydrogen phosphate, 0.5 g monopotassium dihydrogen phosphate, 5 g yeast extract (Difco), 10 g glucose, 15 g agar, 1000 ml distilled water, pH 7.0], the growth inhibition against Talaromyces avellaneus was assayed. In this assay, the minimal inhibitory concentrations were 3 μg/ml for C-15003 P-3 and P-3', and 1.5 μg/ml for C-15003 P-4. Furthermore, the wild strain of Tetrahymena pyriformis W as an assay organism was cultivated on an assay medium [composed of 20 g Proteose-peptone (Difco), 1 g yeast extract, 2 g glucose, 1000 ml distilled water and 10 ml 1 M-phosphate buffer pH 7.0] at 28° C. for 44 to 48 hours and the growth inhibitory activity of the antibiotic compounds against this particular microorganism was determined by the serial dilution method. Growth inhibition occurred at 1 μg/ml for C-15003 P-3 and P-3', and at 0.5 μg/ml for C-15003 P-4.

The subject of the next data set is Tetrahymena pyriformis W. Nature of the data set: Growth inhibitory activity, serial dilution method. As to conditions: 28° C., 44 to 48 hours, pH 7.0, read-out: growth inhibition concentration. It counts as cell-based. The procedure: The potency of the antibiotic was assayed with Tetrahymena pyriformis W as an assay organism.
as §2

Another data set deals with P388 leukemia. Nature of the data set: Antitumour activity, P388 leukemia in mice. Type of data set: in vivo, mouse. To be noted: 0.00625 mg/kg/day, intraperitoneally for 9 consecutive days; 1×10^6 cells/animal, intraperitoneally transplanted.
Data set [1] in a line: Acute toxicity test in mice. To be noted: mouse, in vivo, ip, intraperitoneal injection.
[2] abbreviates: in chloroform, ethyl acetate, acetone, ethanol, methanol, pyridine, tetrahydrofuran & dimethylsulfoxide.

Structures are written as SMILES. In brackets after ≈: the same amount, converted by molar mass. Read-outs that look alike come from different tables or passages of the source.

Usually LD50 stands for the dose at which mortality reaches 50%. Low readings indicate a more toxic substance, high ones a less toxic substance. Regarding `COc1cc2cc(c1Cl)N(C)C(=O)CC(OC(=O)C(C)C)C1(C)OC1C(C)C1CC(O)(NC(=O)O1)C(OC)C=CC=C(C)C2` (stereo not shown) [C-15003 P-3], the “antimicrobial activity (minimal inhibitory concentration)” value with Bacillus cereus, in the data set with Bacillus subtilis, in the data set on Escherichia coli, in the data set on Klebsiella pneumoniae, in the data set with Mycobacterium avium and with Proteus mirabilis was “no activity” throughout. Further, the “antimicrobial activity (minimal inhibitory concentration)” value in the data set with Proteus vulgaris, in the data set with Pseudomonas aeruginosa, in the data set with Serratia marcescens and with Staphylococcus aureus was “no activity” in each case. Moreover, the MIC was determined as 3 µg/mL (≈ 4.72 µM) in the data set with Talaromyces avellaneus and 1 µg/mL (≈ 1.57 µM) with Tetrahymena pyriformis W. The life span-extending ratio in the data set with P388 leukemia is 200%. The LD50 in data set [1] was over 0.313 mg/kg. Also, the Solubility result (in benzene & ether) was “Sparingly soluble”; the Solubility entry under setting [2] is “Soluble”; the Solubility entry (in petr. ether, hexane & water) was “Insoluble”.
With `COc1cc2cc(c1Cl)N(C)C(=O)CC(OC(=O)CC(C)C)C1(C)OC1C(C)C1CC(O)(NC(=O)O1)C(OC)C=CC=C(C)C2` (stereo not shown) [C-15003 P-4], the “antimicrobial activity (minimal inhibitory concentration)” value with Bacillus cereus, in the data set with Bacillus subtilis, in the data set with Escherichia coli, in the data set on Klebsiella pneumoniae, with Mycobacterium avium and with Proteus mirabilis was “no activity” in each case. In addition, the “antimicrobial activity (minimal inhibitory concentration)” value in the data set with Proteus vulgaris, in the data set on Pseudomonas aeruginosa, in the data set with Serratia marcescens and with Staphylococcus aureus was “no activity” throughout. The MIC in the data set with Talaromyces avellaneus amounted to 1.5 µg/mL (≈ 2.31 µM); in the data set with Tetrahymena pyriformis W, 0.5 µg/mL (≈ 0.77 µM). For the same compound, in the data set on P388 leukemia, the life span-extending ratio is 200%. Besides, the LD50 in data set [1] was over 0.313 mg/kg. Besides, the Solubility entry is “Sparingly soluble” (in benzene & ether); “Soluble” under setting [2]; “Insoluble” (in petr. ether, hexane & water).

Values taken from patent US4360462A (priority 1977, dated 1982).
